According to patent US20260216168A1, “MODULATION OF PD-1 SIGNALING FOR TREATMENT OF DISEASES” (Wuhan University, priority 2023, published 2026):
“Also recorded” adds a separate entry of the source.

Tests used:
MARCH5 [1] = target: T1, MARCH5 (Homo sapiens, UniProt Q9NX47); test: MARCH5 / γc-luciferase reporter system in co-transfected HEK293 cells (screen of FDA-approved drugs); assay type: cell-based; conditions: HEK293 cells co-transfected with MARCH5 and γc-luciferase fusion protein; increase = MARCH5 inhibition
T1 construct: expressed in transfected cells; host or cells: HEK293
T1 sequence (Q9NX47 1-278): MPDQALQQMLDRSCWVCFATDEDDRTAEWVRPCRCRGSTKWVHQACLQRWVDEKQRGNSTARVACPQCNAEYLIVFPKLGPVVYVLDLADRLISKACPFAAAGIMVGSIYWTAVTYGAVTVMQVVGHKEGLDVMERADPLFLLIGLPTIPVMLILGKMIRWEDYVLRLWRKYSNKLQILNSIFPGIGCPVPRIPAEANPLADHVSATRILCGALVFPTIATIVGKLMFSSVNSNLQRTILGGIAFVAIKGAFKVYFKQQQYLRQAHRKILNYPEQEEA
Source text: Unfortunately, no pharmacological inhibitors of MARCH5 have been reported. We designed a reporter system in which HEK293 cells are co-transfected with two plasmids encoding MARCH5 and γc-luciferase fusion protein respectively. In this system, inhibition of MARCH5 by an inhibitor would result in increased luciferase activity in reporter assays.
Using this system, we screened a collection of Food and Drug Administration-approved drugs and identified 10 compounds that increased luciferase activity to more than 1.5-folds (Table 1). […] Pitavastatin is a unique lipophilic statin and potent inhibitor of HMG-CoA reductase with a strong effect on lowering plasma total cholesterol and triacylglycerol. Pitavastatin has also been reported to have pleiotropic beneficial effects such as suppression of inflammation, regulation of angiogenesis and osteogenesis, improvement of endothelial function and arterial stiffness.

MARCH5 [2] = target: T1, MARCH5; test: MARCH5-mediated degradation of γc in HEK293 cells; assay type: cell-based
Method: HEK293 cells were transfected by standard calcium phosphate precipitation. The empty control plasmid was added to ensure that each transfection receives the same amount of total DNA.
Cells were lysed in 1 ml of NP-40 lysis buffer (20 mM Tris-HCl, 150 mM NaCl, 1 mM EDTA, 10% Nonidet P-40, […] Triton X-100, […] aprotinin, 10 μg/ml leupeptin, and 1 mM phenylmethylsulfonyl fluoride, PMSF). For each immunoprecipitation reaction, a 0.4 ml aliquot of lysate was incubated with 0.5-2 μg of the indicated antibody or control IgG and 35 μL of a 1:1 slurry of Protein-G Sepharose (GE Healthcare) at 4° C. for 3 h. The Sepharose beads were washed three times with 1 ml of lysis buffer containing 500 mM NaCl. The precipitates were fractionated by SDS-PAGE, and immunoblotting analysis was performed with the indicated antibodies. For ubiquitination assays, the immunoprecipitants were re-extracted in NP-40 lysis buffer containing 1% SDS and denatured by heating for 10 min. The supernatants were diluted with regular lysis buffer until the concentration of SDS was decreased to 0.1%, following by re-immunoprecipitation with the indicated antibodies. The immunoprecipitants were analyzed by immunoblotting with the ubiquitin antibody.

γc [3] = test: γc degradation in Jurkat cells with degradation-route inhibitors (CHX chase or PD-L1 stimulation); assay type: cell-based, human
Method: PD-1-expressing Jurkat cells were pre-stimulated with PHA (50 ng/ml) for 36 h and then treated with CHX (0.1 mM) for the indicated times before immunoblotting analysis with the indicated antibodies. […] PD-1-expressing Jurkat cells were stimulated with PHA (50 ng/ml) in the presence of 2 μg/ml human PD-L1-Fc fusion protein or control (human IgG1) for 36 h, and then treated with MG132 ([…]), NH4Cl (25 mM) or 3-MA (500 ng/ml) for 12 h before immunoblotting analysis with the indicated antibodies. • (D) PD-1 ligation induces polyubiquitination of γc. PD-1-expressing Jurkat cells were stimulated with PHA (50 ng/ml) for the indicated times before co-immunoprecipitation and immunoblotting analysis with the indicated antibodies. • (E) MARCH5 promotes degradation of γc in a dose-dependent manner. HEK293 cells were transfected with the indicated plasmids for 24 h before immunoblot analysis with the indicated antibodies. • (F) Association of γc with MARCH5. […]
Cells were lysed in 1 ml of NP-40 lysis buffer (20 mM Tris-HCl, 150 mM NaCl, 1 mM EDTA, 10% Nonidet P-40, […] Triton X-100, […] aprotinin, 10 μg/ml leupeptin, and 1 mM phenylmethylsulfonyl fluoride, PMSF). […] The immunoprecipitants were analyzed by immunoblotting with the ubiquitin antibody.

γc [4] = test: Effects of other statin drugs on the γc level; assay type: cell-based; conditions: other HMG-CoA reductase inhibitor statins
Source text: Statin drugs, such as lovastatin, simvastatin, fluvastatin sodium and rosuvastatin calcium, are thought to target HMG-CoA reductase. Therefore, we examined the effects of these statin drugs on the γc level.

tumor = test: PC or rosuvastatin calcium alone or with IL-2 on tumor growth in mice; assay type: in vivo, mouse
Source text: We further tested the anti-tumor effects of PC in mouse MC38 colorectal carcinoma and B16F10 melanoma models.

| Compound | Rel. Luc. Act (MARCH5 [1]) | other results |
| --- | --- | --- |
| O=C(/C=C/c1cccc(S(=O)(=O)Nc2ccccc2)c1)NO [Belinostat] | 1.85 |  |
| NC(=O)N1CCC(CC(=O)N2CCC([C@H]3c4ncc(Br)cc4CCc4cc(Cl)cc(Br)c43)CC2)CC1 [Lonafarnib] | 2.88 |  |
| Cl.N [NH4Cl, ammonium chloride] |  | MARCH5-mediated degradation of γc (MARCH5 [2]): inhibited MARCH5-mediated degradation of γc; γc degradation after termination of protein synthesis by CHX (γc [3]; Jurkat cells, MG132 100 μM, NH4Cl 25 mM or 3-MA 500 ng/ml 4 h, then CHX 0.1 mM 2 h): markedly inhibited; also recorded: inhibits γc degradation; PD-L1-induced degradation of γc (γc [3]; PD-1-expressing Jurkat cells, PHA + PD-L1-Fc 36 h, then inhibitor 12 h): also inhibited; also recorded: inhibits PD-1 ligation-induced degradation of γc |
| CCCCc1nc2cc(/C=C/C(=O)NO)ccc2n1CCN(CC)CC [Pracinostat] | 1.75 |  |
| CC[C@H](C)C(=O)O[C@H]1C[C@@H](C)C=C2C=C[C@H](C)[C@H](CC[C@@H]3C[C@@H](O)CC(=O)O3)[C@H]21 [lovastatin] |  | γc level (γc [4]): up-regulated the level of γc |
| CC(C)c1nc(N(C)S(C)(=O)=O)nc(-c2ccc(F)cc2)c1/C=C/[C@@H](O)C[C@@H](O)CC(=O)[O-].CC(C)c1nc(N(C)S(C)(=O)=O)nc(-c2ccc(F)cc2)c1/C=C/[C@@H](O)C[C@@H](O)CC(=O)[O-].[Ca+2] [rosuvastatin calcium] |  | γc level (γc [4]): up-regulated the level of γc; synergistic effect with IL-2 on tumor suppression (tumor; combined with IL-2, mice): no such synergism was observed; tumor growth (tumor; statin administered alone, mice): suppressed tumor growth |
| Chidamide | 1.59 |  |

Now from value to compound, other results behind:

| Rel. Luc. Act (MARCH5 [1]) | Compound | other results |
| --- | --- | --- |
| 1.60 | Nc1ccccc1NC(=O)c1ccc(CNC(=O)OCc2cccnc2)cc1 [Entinostat] |  |
| 1.83 | Nc1ccccc1NC(=O)c1ccc(CNc2nccc(-c3cccnc3)n2)cc1 [Mocetinostat] |  |
| 1.60 | O=P(O)(O)C(O)(Cc1cccnc1)P(=O)(O)O [Risedronate Sodium] |  |
| 1.86 | Nc1cc(F)ccc1NC(=O)c1ccc(CNC(=O)/C=C/c2cccnc2)cc1 [Tucidinostat] |  |
| 1.58 | O=C(CCCCCCC(=O)Nc1ccccc1)NO [Vorinostat] |  |
